Consider 1 compound from patent US8618178B2, “Method and substances for treating T-cell mediated autoimmune diseases” (Eberhard-Karls-Universitaet Tuebingen Universitaetsklinikum, priority 2006, dated 2013).

The test system of one experiment is IL-23. Kind of experiment: IL-23 production by DC, ELISA of culture supernatants. It counts as cell-based, mouse. Here is the method: (§1) IL-4, IL-10, IL-12 and interferon-γ were determined using the ELISA (enzyme linked immunosorbent assay) set or with the use of individual components from BD BioSciences. IL-23 in the supernatant was determined using the ELISA set (eBioscience). For intracytoplasmic cytokine analyses, the T cells were restimulated with PMA/ionomycin or with APC and peptide in the presence of brefeldin A, then fixed and permeabilized and stained. For the surface staining, anti-CD4 or KJ1-26 antibodies were used; the cytokine antibodies (PE labeled) were all obtained from BD Pharmingen.
(§2) As antigen presenting cells (APC), T cell depleted spleen cells from syngenic mice were used. Dendritic cells (DC) which were obtained from bone marrow (BMDC) and cultured with GM-CSF were used for the relevant experiments on day 7 of culturing. For the experiment, in each case an equal number of APC were cultured either with the medium alone, with L-BSO (C8H18N2O3S, 0.5 mM), dimethyl sulfoxide DMSO(C2H6OS), dimethyl fumarate DMF (C6H8O4, dissolved in DMSO, 70 μM), or calcium monomethyl fumarate (MMF; CaC10H10O8, 200 μM). All substances except for MMF (Fumapharm) were purchased from Sigma-Aldrich. At the respective stated times (see below) the cells were either analyzed directly for their GSH content, used for T cell stimulation or stimulated for […] with Escherichia coli lipopolysaccharides 055.B5 (Sigma-Aldrich) or CpG-DNA 1668 (MWG Biotech) and IL-4 (Stratmann). In order to raise the GSH level again, 1 mM GSH-OEt (C12H21N3O6S; Sigma-Aldrich) or 1 mM NAC (Sigma-Aldrich) was added. The GSH reservoirs in mice were depleted by feeding with DMF or MMF, and in man by treatment with Fumaderm®.
On the technique in general: An ELISA detects its analyte on a solid surface through an enzyme-linked reagent.

For another experiment, the system named is IL-10. Kind of experiment: IL-10 production by DC, ELISA of culture supernatants. The format is cell-based, mouse. On the procedure:
as §1
as §2, with “All substances except for MMF (Fumapharm) were purchased from Sigma-Aldrich.” left out, “In order to raise the GSH level again, 1 mM GSH-OEt (C12H21N3O6S; Sigma-Aldrich) or 1 mM NAC (Sigma-Aldrich) was added. The GSH reservoirs in mice were depleted by feeding with DMF or MMF, and in man by treatment with Fumaderm®.” left out

Experiment [1] relates to ovalbumin-specific CD4+ T cells. Briefly: Priming of ovalbumin-specific CD4+ T cells with treated DC, IFN-γ and IL-4 by ELISA. It counts as cell-based, mouse. Conditions: restimulated with fresh APC and antigen. Here is the method:
as §1
The CD4+ T cells of DO11.10 mice were sorted using MACS magnet beads (Miltenyi Biotech). By culturing of DC on day seven with either medium and DMSO or DMF for 2 hours, DC^GSHhigh or DC^GSHlow could be generated. After four-hour stimulation with LPS or CpG-DNA/IL-4, the DC^GSHhigh or DC^GSHlow were used for the stimulation of DO11.10 T cells with 10 μg/ml ovalbumin peptide 323-339 for two days. The T cells were expanded with 50 U/ml IL-2 (Chiron Therapeutics). The cells were washed on day 10 and restimulated with fresh APC. The analysis was performed with the supernatants after 24 hrs. CD4^+ T cells were obtained from SJL mice immunized with PLP peptide using MACS magnet beads and stimulated with irradiated APC and PLP peptide 139-151 in the presence of L-BSO, DMF or only in medium as control. […]

A further experiment relates to human DC. Kind of experiment: GSH determination in human DC in vitro. The format is cell-based. On the procedure: Cellular GSH and GSSG were determined in micro-titer plate assays using colorimetric methods. The cellular GHS content is determined as a percentage of the GSH levels in freshly prepared controls or as pmol 10^−6 cells. GSSG was not detectable.
DC from human bone marrow (BMDC) (CD14^+) were isolated using MACS (Miltenyi Biotech) and incubated for seven days with IL-4 (500 U/ml, R & D Systems) and GM-CSF (Granulocyte-Monocyte Colony Stimulating Factor) (1000 U/ml (Immunonex)). GSX determination as under 1.3.

A further experiment relates to PLP-specific T cells. Briefly: In vitro stimulation of PLP-specific T cells under GSH deprivation. The format is cell-based, mouse. Here is the method: The CD4+ T cells of DO11.10 mice were sorted using MACS magnet beads (Miltenyi Biotech). By culturing of DC on day seven with either medium and DMSO or DMF for 2 hours, DC^GSHhigh or DC^GSHlow could be generated. After four-hour stimulation with LPS or CpG-DNA/IL-4, the DC^GSHhigh or DC^GSHlow were used for the stimulation of DO11.10 T cells with 10 μg/ml ovalbumin peptide 323-339 for two days. The T cells were expanded with 50 U/ml IL-2 (Chiron Therapeutics). The cells were washed on day 10 and restimulated with fresh APC. The analysis was performed with the supernatants after 24 hrs. […]
Spleen and lymph node CD4^+ T cells were stimulated with PLP (proteolipid protein) peptide 139-151 (10 μg/ml) and stimulated for four days with irradiated SJL-APC in the presence or absence of L-BSO (0.5 mM, Sigma), expanded for three to four days and then restimulated for cytokine production (proteolipid protein is the commonest myelin protein in the central nervous system and plays an important part as an autoantigen in the onset of multiple sclerosis). […] For the cytokine analysis of PLP-specific T cells, the draining lymph nodes of the SJL mice were removed 6 days after the immunization and CD4^+ T cells antigen-specifically analyzed (ELISPOT). […] After washing with H2O, the number of spots was determined in the ELISPOT reader (Biosys).

Molecules are shown by their SMILES. Where a name gives a salt, the structure may show the parent alone.

In the case of `COC(=O)/C=C/C(=O)OC` [DMF, dimethyl fumarate], the “lowering of LPS-induced IL-23 production in DC cultivated from bone marrow” value in the experiment on IL-23 (LPS-induced) is “up to 10,000 fold”. Further, in the experiment with IL-23 (after stimulation with LPS, compared to controls (DMSO)), the “IL-23 production by DC” value is “markedly less”. Further, the “IL-10 production in DC” value with IL-10 is “rise in IL-10 production”. Further, in experiment [1], the “IFN-γ production of TH cells induced by treated DC” value is “little IFN-γ” and the “IL-4 production of TH cells induced by treated DC” value was “much IL-4”. The “GSH in human DC” value in the experiment with human DC is reported as “depletes GSH”. In addition, in the experiment on PLP-specific T cells, the “differentiation of PLP-specific T cells to Th1 and Th-17” value is “inhibits the differentiation of Th1 and Th-17”; the “differentiation of PLP-specific T cells towards Th2” value was “promotes the differentiation towards Th2”.
